{"source": "patent US20260049071A1", "about": "“PROTEIN TYROSINE KINASE INHIBITOR AND MEDICAL USE THEREOF” (BEYANG THERAPEUTICS CO., LTD., priority 2022, published 2026)", "key": {"[1]": {"target": "KDR (VEGFR2) (Homo sapiens (Human), UniProt P35968)", "sequence (P35968 790-1356)": "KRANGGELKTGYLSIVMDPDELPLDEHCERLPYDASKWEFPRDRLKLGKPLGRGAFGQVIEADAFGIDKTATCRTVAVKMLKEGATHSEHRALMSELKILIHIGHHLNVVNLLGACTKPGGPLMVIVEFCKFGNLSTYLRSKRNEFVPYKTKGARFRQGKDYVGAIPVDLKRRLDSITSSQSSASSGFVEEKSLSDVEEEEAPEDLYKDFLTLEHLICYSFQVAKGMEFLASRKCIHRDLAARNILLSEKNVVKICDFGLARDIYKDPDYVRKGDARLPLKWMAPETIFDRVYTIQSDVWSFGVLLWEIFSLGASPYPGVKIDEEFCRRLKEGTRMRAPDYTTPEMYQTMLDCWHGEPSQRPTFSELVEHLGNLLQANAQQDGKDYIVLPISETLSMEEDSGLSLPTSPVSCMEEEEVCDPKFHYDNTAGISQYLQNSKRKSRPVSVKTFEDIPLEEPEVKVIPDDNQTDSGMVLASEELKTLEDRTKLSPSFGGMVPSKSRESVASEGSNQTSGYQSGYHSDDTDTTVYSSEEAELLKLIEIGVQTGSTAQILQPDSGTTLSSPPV", "assay": "Kinase inhibition, Mobility Shift Assay (VEGFR2)", "assay_type": "biochemical", "in_short": "(§1)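 Mobility shift assay: each kinase preincubated 10 min at room temperature with compound, then reacted with FAM-labeled peptide, MgCl2 and ATP at 28° C. for varying times. Substrate-to-product conversion read on Caliper; % inhibition normalised to no-kinase and DMSO controls, and IC50 fitted.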"}, "[2]": {"target": "EGFR (Homo sapiens (Human), UniProt P00533)", "sequence (P00533 25-1210)": "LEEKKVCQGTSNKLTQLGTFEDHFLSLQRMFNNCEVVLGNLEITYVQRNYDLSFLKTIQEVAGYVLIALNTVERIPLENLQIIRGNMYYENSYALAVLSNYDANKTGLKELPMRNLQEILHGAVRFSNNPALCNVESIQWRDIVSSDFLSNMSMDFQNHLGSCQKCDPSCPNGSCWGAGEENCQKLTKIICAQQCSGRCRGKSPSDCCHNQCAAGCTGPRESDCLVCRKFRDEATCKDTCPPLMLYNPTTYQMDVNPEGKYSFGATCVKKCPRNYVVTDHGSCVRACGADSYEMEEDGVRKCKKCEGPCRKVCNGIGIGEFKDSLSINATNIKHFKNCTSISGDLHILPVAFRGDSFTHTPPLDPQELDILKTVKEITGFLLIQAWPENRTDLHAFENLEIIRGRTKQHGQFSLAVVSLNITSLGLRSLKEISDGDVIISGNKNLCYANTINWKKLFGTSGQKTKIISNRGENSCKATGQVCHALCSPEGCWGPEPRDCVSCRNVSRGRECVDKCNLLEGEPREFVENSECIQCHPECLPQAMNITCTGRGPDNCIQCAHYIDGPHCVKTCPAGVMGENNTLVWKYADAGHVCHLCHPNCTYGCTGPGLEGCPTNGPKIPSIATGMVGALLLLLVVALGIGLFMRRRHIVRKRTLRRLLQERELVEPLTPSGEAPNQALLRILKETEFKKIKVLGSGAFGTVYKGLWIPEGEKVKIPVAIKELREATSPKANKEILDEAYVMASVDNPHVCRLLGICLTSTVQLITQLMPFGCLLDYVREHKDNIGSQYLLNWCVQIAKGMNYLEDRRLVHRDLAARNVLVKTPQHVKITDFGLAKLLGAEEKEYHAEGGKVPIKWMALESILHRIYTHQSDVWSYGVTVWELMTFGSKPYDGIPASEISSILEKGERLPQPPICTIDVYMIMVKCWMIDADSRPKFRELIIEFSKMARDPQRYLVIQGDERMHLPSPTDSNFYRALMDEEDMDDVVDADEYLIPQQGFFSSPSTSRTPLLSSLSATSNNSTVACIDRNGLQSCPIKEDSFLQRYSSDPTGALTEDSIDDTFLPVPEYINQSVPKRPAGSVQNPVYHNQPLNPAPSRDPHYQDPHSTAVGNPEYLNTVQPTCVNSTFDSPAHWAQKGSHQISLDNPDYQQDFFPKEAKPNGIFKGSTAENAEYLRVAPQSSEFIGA", "assay": "Kinase inhibition, Mobility Shift Assay (EGFR)", "assay_type": "biochemical", "in_short": "as §1"}, "[3]": {"target": "FLT1 (VEGFR1) (Homo sapiens (Human), UniProt P17948)", "sequence (P17948 27-1338)": "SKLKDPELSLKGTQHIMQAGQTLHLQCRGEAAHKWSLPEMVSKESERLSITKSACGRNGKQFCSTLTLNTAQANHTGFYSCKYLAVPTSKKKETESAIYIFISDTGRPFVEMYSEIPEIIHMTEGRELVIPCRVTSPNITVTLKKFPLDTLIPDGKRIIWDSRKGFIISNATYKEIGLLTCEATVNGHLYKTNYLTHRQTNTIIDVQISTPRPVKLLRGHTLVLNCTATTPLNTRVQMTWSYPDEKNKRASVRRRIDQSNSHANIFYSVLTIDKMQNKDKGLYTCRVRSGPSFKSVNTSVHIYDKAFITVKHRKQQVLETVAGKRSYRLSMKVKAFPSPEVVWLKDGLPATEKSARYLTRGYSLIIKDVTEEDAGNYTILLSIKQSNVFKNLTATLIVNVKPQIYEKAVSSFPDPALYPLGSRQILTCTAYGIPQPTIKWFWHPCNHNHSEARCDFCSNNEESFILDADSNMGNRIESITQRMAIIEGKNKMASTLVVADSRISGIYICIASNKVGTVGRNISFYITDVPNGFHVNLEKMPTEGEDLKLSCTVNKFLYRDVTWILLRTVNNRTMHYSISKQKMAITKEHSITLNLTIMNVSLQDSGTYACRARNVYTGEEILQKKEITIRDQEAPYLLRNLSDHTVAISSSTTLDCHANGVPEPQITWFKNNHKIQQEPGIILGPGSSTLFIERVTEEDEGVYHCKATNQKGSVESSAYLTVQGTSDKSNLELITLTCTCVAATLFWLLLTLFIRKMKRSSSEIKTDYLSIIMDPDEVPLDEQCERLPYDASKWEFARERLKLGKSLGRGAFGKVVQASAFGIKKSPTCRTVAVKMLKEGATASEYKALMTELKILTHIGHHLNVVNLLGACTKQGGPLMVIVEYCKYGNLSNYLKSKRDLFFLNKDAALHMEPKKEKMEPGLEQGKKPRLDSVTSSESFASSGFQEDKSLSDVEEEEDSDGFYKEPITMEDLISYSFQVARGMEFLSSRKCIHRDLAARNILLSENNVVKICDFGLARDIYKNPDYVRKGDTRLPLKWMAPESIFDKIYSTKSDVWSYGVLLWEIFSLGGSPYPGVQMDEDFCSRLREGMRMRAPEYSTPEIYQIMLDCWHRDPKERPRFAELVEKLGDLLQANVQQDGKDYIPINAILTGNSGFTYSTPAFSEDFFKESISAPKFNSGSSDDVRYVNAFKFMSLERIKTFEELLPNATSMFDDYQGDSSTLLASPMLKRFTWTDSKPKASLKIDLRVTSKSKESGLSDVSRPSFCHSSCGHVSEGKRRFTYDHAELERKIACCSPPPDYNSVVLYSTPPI", "assay": "Kinase inhibition, Mobility Shift Assay (VEGFR1)", "assay_type": "biochemical", "experimental": "(§2) This assay directly monitored the ability of compounds to inhibit kinase phosphorylation by measuring non-phosphorylated and phosphorylated substrates in kinase reactions by using Mobility Shift Assays/IMAP™ analysis.\n(§3) Add the kinase and DTT to 1× kinase buffer to form a 2.5× kinase solution; transfer 10 μL of 2.5× kinase solution to a 384-well reaction plate and add 1× kinase buffer to negative control wells. Incubate the plate for 10 min at room temperature; add FAM-labeled peptides, MgCl2, ATP and other reagents to 1× kinase buffer to form a 2.5× substrate solution; transfer 10 μL of the above 2.5× substrate solution to the 384-well reaction plate; incubate the plate at 28° C. for different times, and add 25 μL of stop solution to the 384-well reaction plate to stop the reaction. Read the conversion ratio data on CaliperEZ Reader II. Convert conversion rates into inhibition ratio data.\n(§4) “Min” indicates the readout of the control well without the addition of kinase; and “Max” indicates the readout of the control well with the addition of DMSO. Fit IC50 values with XLFit excel add-in version 5.4.0.8.\n(§5) X indicates the log value of compound concentration, and Y indicates the inhibition ratio (% inhibition)."}, "[4]": {"target": "FLT4 (VEGFR3) (Homo sapiens (Human), UniProt P35916)", "sequence (P35916 25-1363)": "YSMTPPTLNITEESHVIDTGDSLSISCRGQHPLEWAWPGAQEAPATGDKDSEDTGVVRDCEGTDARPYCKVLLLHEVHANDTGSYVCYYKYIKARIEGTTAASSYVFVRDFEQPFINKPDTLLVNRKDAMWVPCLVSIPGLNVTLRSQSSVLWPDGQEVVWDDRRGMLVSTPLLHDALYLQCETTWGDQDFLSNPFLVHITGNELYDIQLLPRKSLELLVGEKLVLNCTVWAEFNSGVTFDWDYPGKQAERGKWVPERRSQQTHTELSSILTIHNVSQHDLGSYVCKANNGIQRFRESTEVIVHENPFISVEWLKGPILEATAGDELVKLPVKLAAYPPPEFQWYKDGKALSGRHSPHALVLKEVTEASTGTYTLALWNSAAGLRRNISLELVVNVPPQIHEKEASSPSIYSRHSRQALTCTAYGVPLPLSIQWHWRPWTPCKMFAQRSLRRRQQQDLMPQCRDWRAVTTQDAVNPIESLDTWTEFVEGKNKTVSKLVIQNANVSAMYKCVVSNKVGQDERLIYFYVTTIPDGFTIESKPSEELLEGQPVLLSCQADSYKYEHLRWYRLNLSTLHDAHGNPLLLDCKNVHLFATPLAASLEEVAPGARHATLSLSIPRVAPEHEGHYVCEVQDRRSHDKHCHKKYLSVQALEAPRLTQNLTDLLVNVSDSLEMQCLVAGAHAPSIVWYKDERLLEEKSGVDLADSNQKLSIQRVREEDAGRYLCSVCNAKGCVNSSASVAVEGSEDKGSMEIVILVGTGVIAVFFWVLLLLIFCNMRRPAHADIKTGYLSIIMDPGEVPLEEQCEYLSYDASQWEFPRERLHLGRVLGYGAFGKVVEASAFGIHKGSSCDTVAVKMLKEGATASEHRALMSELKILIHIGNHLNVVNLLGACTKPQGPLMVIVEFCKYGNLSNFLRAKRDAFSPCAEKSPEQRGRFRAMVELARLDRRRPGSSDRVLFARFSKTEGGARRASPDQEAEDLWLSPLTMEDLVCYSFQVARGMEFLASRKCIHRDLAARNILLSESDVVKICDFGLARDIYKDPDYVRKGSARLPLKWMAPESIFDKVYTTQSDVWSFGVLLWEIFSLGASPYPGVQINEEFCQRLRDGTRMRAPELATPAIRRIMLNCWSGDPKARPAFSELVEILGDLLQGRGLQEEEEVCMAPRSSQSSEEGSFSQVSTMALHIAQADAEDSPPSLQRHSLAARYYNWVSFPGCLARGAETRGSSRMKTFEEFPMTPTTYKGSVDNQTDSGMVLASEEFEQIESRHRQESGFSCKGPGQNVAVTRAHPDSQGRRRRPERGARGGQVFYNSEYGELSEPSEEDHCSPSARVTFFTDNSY", "assay": "Kinase inhibition, Mobility Shift Assay (VEGFR3)", "assay_type": "biochemical", "experimental": "as §2, §3, §4, §5"}, "[5]": {"system": "melanin", "assay": "Binding capacity of compounds to melanin", "assay_type": "in vitro ADME", "conditions": "Sepia officinalis (cuttlefish), melanin suspension (1 mg/mL); 1 mg/mL melanin suspension in PBS pH 7.4, 2 μM compound, 2 h at 37° C.; read-out: Fu % (percentage of free drug, not bound to melanin)", "source_text": "Pigmented eye tissues contain melanin in intracellular melanosomes. Drugs bind to melanin to varying degrees, ranging from non-binding to extensive binding. Therefore, melanin binding is an important feature that affects drug delivery and biodistribution in the eye. The binding capacity of a compound to the melanin must be considered in the development of ophthalmic drugs.\nMelanin was derived from the melanin of cuttlefish (Sepia officinalis) and was commercially available from Sigma Aldrich (St Louis, MO).\nFirst, prepare 1 mg/mL melanin suspension with PBS (pH 7.4). As a washing step for the matrix, centrifuge the suspended particles for 5 min at 3000 rpm. Resuspend the resulting particles in a fresh PBS buffer, heat to 37° C. over continuous shaking and incubate it for 1 h. Accurately pipette 2 μL of the test stock solution (0.1 mM) into 98 μL of melanin suspension (1 mg/mL) to achieve a final incubation concentration of 2 μM. Similarly, accurately pipette 2 μL of the stock solution (0.1 mM) to 98 μL of PBS buffer (containing 0.1% BSA) as a blank control sample. Incubate the samples in a shaker (80-90 rpm) for 2 h at 37° C. Then, centrifuge the samples at room temperature. Pipette 50 μL of the supernatant and add 50 μL of precipitant (containing an internal standard). After protein precipitation of all the above samples, centrifuge the samples to collect the supernatants, dilute the supernatants with water (if necessary) and inject them for analysis. At the same time, measure the positive controls, including the high-binding compounds Sunitinib and chloroquine and the low-binding compound celecoxib. Establish an LC-MS/MS method for determining compound concentrations, and calibrate the peak area ratio of analyte/internal standard (Analyte/AIS) in the measured sample by the dilution factor to take it as an alternative concentration for the sample for data processing. The binding rate (Fh) of a compound in melanin was calculated as: […]\nCtest was the concentration of the compound in the melanin-incubated sample or the peak area ratio of the test compound to the internal standard. Ccontrol was the concentration of the compound in the blank control sample or the peak area ratio of the test compound to the internal standard. Percentage of free drug (Fu %)=100−Fb The binding rates of the compounds of the present invention to melanin are shown in the table below: […]"}}, "data": [{"smiles": "CNC(=O)c1ccccc1Sc1ccc2c(/C=C/c3ccc(OCCC4CCN(C)CC4)cn3)n[nH]c2c1", "note": "[Compound I-5, N-methyl-2-({3-[(E)-2-{5-[2-(1-methylpiperidin-4-yl)ethoxy]pyridin-2-yl}vinyl]-1H-indazol-6-yl}thio)benzamide]", "values": [{"measurement": "IC50", "setting": "[1]", "result": "≤ 1", "unit": "nM"}, {"measurement": "IC50", "setting": "[2]", "result": "6000 to 60000", "unit": "nM"}, {"measurement": "IC50", "setting": "[3]", "result": "≤ 1", "unit": "nM"}, {"measurement": "IC50", "setting": "[4]", "result": "≤ 1", "unit": "nM"}, {"measurement": "fraction unbound at 2 h, 2 μM", "setting": "[5]", "result": "0.01 to 0.05"}]}, {"smiles": "O=C(NC1CC1)c1ccccc1Sc1ccc2c(/C=C/c3cccc(CN4CCCC4)n3)n[nH]c2c1", "note": "[Compound I-117, N-cyclopropyl-2-({3-[(E)-2-{6-[(pyrrolidin-1-yl)methyl]pyridin-2-yl}vinyl]-1H-indazol-6-yl}thio)benzamide]", "values": [{"measurement": "IC50", "setting": "[1]", "result": "1 to 10", "unit": "nM"}, {"measurement": "IC50", "setting": "[2]", "result": "> 60000", "unit": "nM"}, {"measurement": "IC50", "setting": "[3]", "result": "1 to 10", "unit": "nM"}, {"measurement": "IC50", "setting": "[4]", "result": "1 to 10", "unit": "nM"}, {"measurement": "fraction unbound at 2 h, 2 μM", "setting": "[5]", "result": "0.01 to 0.05"}]}, {"smiles": "CNC(=O)c1ccccc1Sc1ccc2c(C#Cc3ccc(OCCN4CCCC4)cn3)n[nH]c2c1", "note": "[Compound I-16, N-methyl-2-{[3-(2-{5-[2-(pyrrolidin-1-yl)ethoxy]pyridin-2-yl}ethynyl)-1H-indazol-6-yl]thio}benzamide]", "values": [{"measurement": "IC50", "setting": "[1]", "result": "1 to 10", "unit": "nM"}, {"measurement": "IC50", "setting": "[2]", "result": "6000 to 60000", "unit": "nM"}, {"measurement": "IC50", "setting": "[3]", "result": "1 to 10", "unit": "nM"}, {"measurement": "IC50", "setting": "[4]", "result": "1 to 10", "unit": "nM"}, {"measurement": "fraction unbound at 2 h, 2 μM", "setting": "[5]", "result": "< 0.01"}]}, {"smiles": "CNC(=O)c1ccccc1Sc1ccc2c(C#Cc3cc(OCCN4CCCC4)ccn3)n[nH]c2c1", "note": "[Compound I-23, N-methyl-2-{[3-(2-{4-[2-(pyrrolidin-1-yl)ethoxy]pyridin-2-yl}ethynyl)-1H-indazol-6-yl]thio}benzamide]", "values": [{"measurement": "IC50", "setting": "[1]", "result": "10 to 100", "unit": "nM"}, {"measurement": "IC50", "setting": "[2]", "result": "6000 to 60000", "unit": "nM"}, {"measurement": "IC50", "setting": "[3]", "result": "10 to 100", "unit": "nM"}, {"measurement": "IC50", "setting": "[4]", "result": "> 100", "unit": "nM"}, {"measurement": "fraction unbound at 2 h, 2 μM", "setting": "[5]", "result": "0.01 to 0.05"}]}, {"smiles": "CNC(=O)c1ccc(F)cc1Sc1ccc2c(/C=C/c3ccc(OCCN4CCCC4)cn3)n[nH]c2c1", "note": "[Compound I-35]", "values": [{"measurement": "IC50", "setting": "[1]", "result": "1 to 10", "unit": "nM"}, {"measurement": "IC50", "setting": "[2]", "result": "6000 to 60000", "unit": "nM"}, {"measurement": "IC50", "setting": "[3]", "result": "1 to 10", "unit": "nM"}, {"measurement": "IC50", "setting": "[4]", "result": "1 to 10", "unit": "nM"}, {"measurement": "fraction unbound at 2 h, 2 μM", "setting": "[5]", "result": "0.01 to 0.05"}]}, {"smiles": "CNC(=O)c1ccccc1Sc1ccc2c(/C=C/c3ccnn3CCN3CCCC3)n[nH]c2c1", "note": "[Compound I-25, N-methyl-2-({3-[(E)-2-{1-[2-(pyrrolidin-1-yl)ethyl]-1H-pyrazole-5-yl}vinyl]-1H-indazol-6-yl}thio)benzamide]", "values": [{"measurement": "IC50", "setting": "[1]", "result": "> 100", "unit": "nM"}, {"measurement": "IC50", "setting": "[2]", "result": "6000 to 60000", "unit": "nM"}, {"measurement": "IC50", "setting": "[3]", "result": "10 to 100", "unit": "nM"}, {"measurement": "IC50", "setting": "[4]", "result": "10 to 100", "unit": "nM"}, {"measurement": "fraction unbound at 2 h, 2 μM", "setting": "[5]", "result": "> 0.05"}]}, {"smiles": "CNC(=O)c1ccccc1Sc1ccc2c(/C=C/c3ccn(CCCN4CCCC4)n3)n[nH]c2c1", "note": "[Compound I-11, N-methyl-2-({3-[(E)-2-{1-[3-(pyrrolidin-1-yl)propyl]-1H-pyrazole-3-yl}vinyl]-1H-indazol-6-yl}thio)benzamide]", "values": [{"measurement": "IC50", "setting": "[1]", "result": "1 to 10", "unit": "nM"}, {"measurement": "IC50", "setting": "[2]", "result": "6000 to 60000", "unit": "nM"}, {"measurement": "IC50", "setting": "[3]", "result": "1 to 10", "unit": "nM"}, {"measurement": "IC50", "setting": "[4]", "result": "1 to 10", "unit": "nM"}, {"measurement": "fraction unbound at 2 h, 2 μM", "setting": "[5]", "result": "0.01 to 0.05"}]}, {"smiles": "CNC(=O)c1c(F)cccc1Sc1ccc2c(/C=C/c3ccc(OCCN4CCCC4)cn3)n[nH]c2c1", "note": "[Compound I-36, 2-fluoro-N-methyl-6-({3-[(E)-2-{5-[2-(pyrrolidin-1-yl)ethoxy]pyridin-2-yl}vinyl]-1H-indazol-6-yl}thio)benzamide]", "values": [{"measurement": "IC50", "setting": "[1]", "result": "1 to 10", "unit": "nM"}, {"measurement": "IC50", "setting": "[2]", "result": "6000 to 60000", "unit": "nM"}, {"measurement": "IC50", "setting": "[3]", "result": "> 100", "unit": "nM"}, {"measurement": "IC50", "setting": "[4]", "result": "1 to 10", "unit": "nM"}, {"measurement": "fraction unbound at 2 h, 2 μM", "setting": "[5]", "result": "> 0.05"}]}, {"smiles": "CNC(=O)c1ccccc1Sc1ccc2c(NC(=O)NCCN3CCN(C)CC3)n[nH]c2c1", "note": "[Compound I-31]", "values": [{"measurement": "IC50", "setting": "[1]", "result": "> 100", "unit": "nM"}, {"measurement": "IC50", "setting": "[2]", "result": "> 60000", "unit": "nM"}, {"measurement": "IC50", "setting": "[3]", "result": "> 100", "unit": "nM"}, {"measurement": "IC50", "setting": "[4]", "result": "> 100", "unit": "nM"}, {"measurement": "fraction unbound at 2 h, 2 μM", "setting": "[5]", "result": "0.01 to 0.05"}]}, {"smiles": "O=C(NC1CC1)c1ccccc1Sc1ccc2c(/C=C/c3cc(CN4CCCC4)ccn3)n[nH]c2c1", "note": "[Compound I-115, N-cyclopropyl-2-({3-[(E)-2-{4-[(pyrrolidin-1-yl)methyl]pyridin-2-yl}vinyl]-1H-indazol-6-yl}thio)benzamide]", "values": [{"measurement": "IC50", "setting": "[1]", "result": "1 to 10", "unit": "nM"}, {"measurement": "IC50", "setting": "[2]", "result": "6000 to 60000", "unit": "nM"}, {"measurement": "IC50", "setting": "[3]", "result": "1 to 10", "unit": "nM"}, {"measurement": "IC50", "setting": "[4]", "result": "10 to 100", "unit": "nM"}, {"measurement": "fraction unbound at 2 h, 2 μM", "setting": "[5]", "result": "0.01 to 0.05"}]}]}
